Assay results taken from article PMC5584760, “Rational design of drug-like compounds targeting Mycobacterium marinum MelF protein” (PLoS ONE, 2017).
Values after ≈ are worked out from the molar mass of the structure shown. Values joined by “and” are separate entries in the source; they are usually repeats but may differ in a detail not shown here. Equal values may be shown once. Read-outs that look alike come from different tables or passages of the source.

Experiments:
M. tuberculosis [1] = test: MBC of combinations of drugs (RIF/INH) and inhibitors; type: cell-based, M. tuberculosis H37Rv; conditions: for bactericidal effect in combination with RIF against M. tuberculosis: compared with RIF alone
M. marinum [2] = test: MIC by resazurin microtiter plate assay (REMA); type: cell-based, M. marinum strain M; conditions: 48 h, ~5 X 10^6/well, median (range) of three independent experiments; for MIC: Mycobacterium marinum
HeLa cells = test: MTT cytotoxicity assay; type: cell-based, Human; conditions: 20 h
Description: The MTT (3-(4, 5-dimethyl thiazol-2yl)-2, 5-diphenyl tetrazolium bromide) assay was employed to assess the cytotoxicity of the inhibitors. HeLa cells (Human cervical epithelial cells) were plated at a concentration of 1×10^5/well in 100 μL of minimal essential medium (MEM) supplemented with 10% heat-inactivated fetal bovine serum (FBS) in 96-well plates. After overnight incubation at 37°C in 5% CO2 incubator, media was removed and the inhibitors were added in 100 μL of MEM + 10% heat-inactivated FBS at 1X and 5 X MIC concentrations. After incubation for 20 h, the cells were washed thrice with warm MEM (without FBS) and 200 μL of MTT (5mg/mL) was added. The plates were further incubated for 4 h, followed by the addition of 50 μL of DMSO (solubilizing reagent) per well, mixed thoroughly by a micropipette and left for 45 s. Presence of viable cells was visualized by the development of purple color due to formation of formazan crystals. The OD values were read at 595 nm using DMSO as a blank. A standard graph was plotted between the concentration of inhibitors and the relative cell viability.
Cell viability (%) = Test OD /Control ODX 100

M. tuberculosis [3] = test: MBC by CFU assay; type: cell-based, M. tuberculosis H37Rv; conditions: for MBC, M. tuberculosis / MBC: CFU assay, 96 h, median (range) of three independent experiments; for MBC/MIC, M. tuberculosis: ratio, bactericidal when ≤ 4; for MBC: Mycobacterium tuberculosis
purified MelF = purified MelF (Mycobacterium marinum, UniProt Q5SDQ6); test: Ki determination by Dixon plots; type: biochemical; conditions: for Ki: Dixon plots, substrate 50, 100 and 150 μM; for type of inhibition (Dixon's plot): intersection of Dixon's plots
purified MelF, sequence (Q5SDQ6 entry or part of it): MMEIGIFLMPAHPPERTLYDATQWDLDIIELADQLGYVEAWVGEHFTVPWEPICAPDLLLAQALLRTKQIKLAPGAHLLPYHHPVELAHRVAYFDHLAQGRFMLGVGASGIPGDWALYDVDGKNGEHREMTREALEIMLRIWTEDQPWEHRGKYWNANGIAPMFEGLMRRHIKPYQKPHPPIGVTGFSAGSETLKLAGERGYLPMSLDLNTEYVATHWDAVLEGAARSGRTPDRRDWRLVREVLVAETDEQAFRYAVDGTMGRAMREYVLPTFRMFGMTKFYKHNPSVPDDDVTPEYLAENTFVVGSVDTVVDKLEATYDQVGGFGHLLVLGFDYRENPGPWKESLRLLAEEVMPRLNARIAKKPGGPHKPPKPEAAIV
Description: The enzyme activity was assayed by monitoring a decrease in absorption of NADH (nicotinamide adenine dinucleotide) at 340 nm (ε = 6.22 X 10^3 M^-1cm^-1) in 50 mM Tris-Cl, pH 7.4 at 25°C. The steady state kinetic measurements were performed in a 1-cm path length cuvette in a final volume of 1mL according to the method of Kendrew et al. with slight modifications. 300μM of NADH and 80μM of FAD (flavin adenine dinucleotide) were added and the assay was initiated with the addition of 100 μg (6.09× 10^−10 mole) of enzyme present in WCL/purified MelF. The reaction was followed at 25°C for 5 min. The FAD was kept in the dark to prevent photo-reduction. The specific activity of the enzyme was calculated as Units/mg = ΔA340/min/6.22×mg enzyme/ mL reaction mixture Where ΔA340 represents a change in absorbance of NADH at 340 nm.
Ki values were calculated using Dixon plots, where inverse of Vmax values were plotted against the inhibitor concentration using different substrate concentrations.

M. marinum [4] = test: MBC by CFU assay; type: cell-based, M. marinum strain M; conditions: for MBC, M. marinum / MBC: CFU assay, 48 h, median (range) of three independent experiments; for MBC/MIC, M. marinum: ratio, bactericidal when ≤ 4; for MBC: Mycobacterium marinum
M. tuberculosis [5] = test: MIC by resazurin microtiter plate assay (REMA); type: cell-based, M. tuberculosis H37Rv; conditions: 96 h, ~5 X 10^6/well, median (range) of three independent experiments; for MIC: Mycobacterium tuberculosis
M. marinum [6] = test: Resazurin drugs combination microtiter assay (RIF/INH + inhibitor); type: cell-based, M. marinum strain M; conditions: for FICI in combination with INH, M. marinum: synergistic inhibitory effect
M. tuberculosis [7] = test: as above; type: cell-based, M. tuberculosis H37Rv; conditions: for FICI in combination with INH, M. tuberculosis: synergistic inhibitory effect
[8] = at both 1X and 5X MIC concentrations

Compound	MIC, M. marinum (M. marinum [2])	MBC, M. tuberculosis (M. tuberculosis [3])	MBC/MIC, M. tuberculosis (M. tuberculosis [3])	Ki (purified MelF; read-out: Ki)	type of inhibition (Dixon's plot) (purified MelF)	MBC, M. marinum (M. marinum [4])	MBC/MIC, M. marinum (M. marinum [4])	MIC, M. tuberculosis (M. tuberculosis [5])	cytotoxicity in HeLa cells (HeLa cells; [8])	MIC (M. marinum [2])	MBC (M. tuberculosis [3])	MBC (M. marinum [4])	MIC (M. tuberculosis [5])	FICI in combination with INH, M. tuberculosis (M. tuberculosis [7])	Ki (purified MelF; Ki)	other results
2,2'-[3-(3-methoxyphenyl)-1,2-propanediyl]bis-1H-benzimidazole [compound 9125618]	9.57–19.39 μM and 18.80 (9.40–18.80) μM	37.61 (37.61) μM	1	24 µM and 25 µM	noncompetitive inhibition	37.61 (37.61) μM	2	32.68–38.77 μM and 37.61 (18.80–37.61) μM	–	–	–	–	–	–	–	bactericidal effect in combination with RIF against M. tuberculosis (M. tuberculosis [1]): enhanced bactericidal effect; cytotoxicity in HeLa cells (HeLa cells; 5X MIC concentration): ~ 18%
2-{[(2-methyl-6-phenyl-4-pyrimidinyl)thio]methyl}-1H-benzimidazole [compound 6513745]	–	38.77 (19.39–38.77) μM	1	18 µM	noncompetitive inhibition	38.77 (19.39–38.77) μM	2	32.68–38.77 μM and 38.77 (19.39–38.77) μM	not cytotoxic	–	–	–	–	–	–	combined effect with INH against M. marinum (M. marinum [6]; in combination with INH): synergistic inhibitory effect; FICI in combination with INH, M. marinum (M. marinum [6]): 0.276
NNC(=O)c1ccncc1 [INH, Isoniazid, reference compound]	–	–	1	–	–	–	1	–	–	4.53 µM (≈ 0.621 µg/mL)	2.27 µM (≈ 0.311 µg/mL)	4.53 µM (≈ 0.621 µg/mL)	2.27 µM (≈ 0.311 µg/mL)	–	–	–
CO[C@H]1/C=C/O[C@@]2(C)Oc3c(C)c(O)c4c(O)c(c(/C=N/N5CCN(C)CC5)c(O)c4c3C2=O)NC(=O)/C(C)=C\C=C\[C@H](C)[C@H](O)[C@@H](C)[C@@H](O)[C@@H](C)[C@H](OC(C)=O)[C@@H]1C [RIF, Rifampicin, reference compound]	–	–	2	–	–	–	2	–	–	0.475 µM (≈ 0.391 µg/mL)	0.095 µM (≈ 0.0782 µg/mL)	0.95 µM (≈ 0.782 µg/mL)	0.048 µM (≈ 0.0395 µg/mL)	–	–	–
CC(C)COc1ccc(-c2nn(-c3ccccc3)cc2CO)cc1 [compound 5175552, [3-(4-isobutoxyphenyl)-1-phenyl-1H-pyrazol-4-yl]methanol]	3.38 (3.38) μM	27.02 (13.51–27.02) μM	2	–	competitive inhibition	6.76 (6.76) μM	2	13.51 (13.51–27.02) μM	not cytotoxic	3.38 µM (≈ 1.09 µg/mL)	27 µM (≈ 8.71 µg/mL)	6.76 µM (≈ 2.18 µg/mL)	13.5 µM (≈ 4.36 µg/mL)	0.257–0.263	68 µM	MBC/MIC ratio in combination with RIF, M. tuberculosis (M. tuberculosis [1]): 1; bactericidal effect in combination with RIF against M. tuberculosis (M. tuberculosis [1]): enhanced bactericidal effect; combined effect with INH against M. tuberculosis (M. tuberculosis [7]; in combination with INH): synergistic inhibitory effect
c1ccc(CC(Cc2nc3ccccc3[nH]2)c2nc3ccccc3[nH]2)cc1 (centres unmarked) [compound 5255825, 2,2'-(3-phenyl-1,2-propanediyl)bis-1H-benzimidazole]	17.74 (8.87–17.74) μM	–	1	–	competitive inhibition	–	2	35.47 (17.74–35.47) μM	cytotoxic	9.57 to 19.4 µM (≈ 3.37 to 6.83 µg/mL)	35.5 µM (≈ 12.5 µg/mL)	35.5 µM (≈ 12.5 µg/mL)	32.7 to 38.8 µM (≈ 11.5 to 13.7 µg/mL)	0.257–0.263	4 µM	FICI in combination with INH, M. marinum (M. marinum [6]): 0.276
CCC(C)c1ccc(OCCSc2nc3ccccc3[nH]2)cc1 (centres unmarked) [compound 6492687, 2-{[2-(4-sec-butylphenoxy)ethyl]thio}-1H-benzimidazole]	9.57 (9.57) μM	–	1	–	competitive inhibition	–	4	38.28 (19.14–38.28) μM	cytotoxic	9.57 to 19.4 µM (≈ 3.12 to 6.33 µg/mL)	38.3 µM (≈ 12.5 µg/mL)	38.3 µM (≈ 12.5 µg/mL)	32.7 to 38.8 µM (≈ 10.7 to 12.7 µg/mL)	0.257–0.263	25 µM and 24 µM	–
N~1~,N~1~-diethyl-N~4~-{6-methoxy-2-[2-(4-nitrophenyl)vinyl]-4-quinolinyl}-1,4-pentanediamine [compound 5255829]	9.57–19.39 μM and 16.30 (8.15–16.30) μM	32.68 (32.68) μM	1	9 µM	competitive inhibition	32.68 (32.68) μM	2	32.68–38.77 μM and 32.68 (32.68) μM	not cytotoxic	–	–	–	–	–	–	–
